Measured values from PubChem BioAssay (NCI).
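Each compound was tested at five concentrations against cells in 96-well plates for 48 hours. Definition used: TGI = concentration required for complete inhibition of growth.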

What was measured:
Experiment in all cases: NCI tumour cell line growth inhibition, 48 h
[1] = system: NCI-H226 lung
[2] = system: SK-OV-3 ovarian
[3] = system: K-562 leukemia
[4] = system: HCT-15 colon
[5] = system: ACHN renal
[6] = system: KM12 colon
[7] = system: NCI-H522 lung
[8] = system: MOLT-4 leukemia
[9] = system: SK-MEL-5 melanoma
[10] = system: LOX IMVI melanoma
[11] = system: RPMI-8226 leukemia
[12] = system: MCF7 breast
[13] = system: SF-268 CNS
[14] = system: NCI/ADR-RES ovarian
[15] = system: CCRF-CEM leukemia
[16] = system: SN12C renal
[17] = system: HCC-2998 colon
[18] = system: SK-MEL-2 melanoma
[19] = system: A498 renal
[20] = system: IGROV1 ovarian
[21] = system: M14 melanoma
[22] = system: CAKI-1 renal
[23] = system: SNB-19 CNS
[24] = system: OVCAR-5 ovarian
[25] = system: 786-0 renal
[26] = system: MDA-MB-435
[27] = system: HT29 colon
[28] = system: SR leukemia
[29] = system: U251 CNS
[30] = system: SF-539 CNS
[31] = system: COLO 205 colon
[32] = system: OVCAR-4 ovarian
[33] = system: DU-145 prostate
[34] = system: OVCAR-8 ovarian
[35] = system: UACC-62 melanoma
[36] = system: HOP-92 NSCLC
[37] = system: MDA-N
[38] = system: SNB-75 CNS
[39] = system: HL-60(TB) leukemia
[40] = system: NCI-H460 lung
[41] = system: SF-295 CNS
[42] = system: OVCAR-3 ovarian
[43] = system: NCI-H23 lung
[44] = system: PC-3 prostate
[45] = system: HOP-62 NSCLC
[46] = system: T-47D breast
[47] = system: RXF 393 renal
[48] = system: A549 NSCLC
[49] = system: TK-10 renal
[50] = system: MALME-3M melanoma
[51] = system: SW-620 colon
[52] = system: SK-MEL-28 melanoma
[53] = system: BT-549 breast
[54] = system: EKVX NSCLC
[55] = system: MDA-MB-231 breast
[56] = system: HCT-116 colon
[57] = system: UACC-257 melanoma
[58] = system: HS 578T breast
[59] = system: UO-31 renal

N#Cc1c(-c2ccc(Cl)cc2)cc(-c2ccc(Nc3ccnc4cc(C(F)(F)F)ccc34)cc2)[nH]c1=O
TGI [1]: > 100 µM | TGI [2]: 73.1 µM | TGI [3]: 15.6 µM | TGI [4]: > 100 µM | TGI [5]: > 100 µM | TGI [6]: > 100 µM | TGI [7]: > 100 µM | TGI [8]: 20.7 µM | TGI [9]: > 53.4 µM | TGI [10]: > 23.5 µM | TGI [11]: > 73.7 µM | TGI [12]: > 100 µM | TGI [13]: > 100 µM | TGI [14]: > 100 µM | TGI [15]: 11 µM | TGI [16]: > 100 µM | TGI [17]: > 100 µM | TGI [18]: > 100 µM | TGI [19]: > 89.6 µM | TGI [20]: > 100 µM | TGI [21]: 13.9 µM | TGI [22]: > 64.3 µM | TGI [23]: 34.3 µM | TGI [24]: > 65 µM | TGI [25]: 24.9 µM | TGI [26]: 10.2 µM | TGI [27]: > 48.9 µM | TGI [28]: 8.93 µM | TGI [29]: > 100 µM | TGI [30]: 18.5 µM | TGI [31]: 59.4 µM | TGI [32]: 24.2 µM | TGI [33]: > 48.5 µM | TGI [34]: > 100 µM | TGI [35]: 39.6 µM | TGI [36]: 32.7 µM | TGI [37]: 11.9 µM | TGI [38]: > 50 µM | TGI [39]: 35 µM | TGI [40]: > 100 µM | TGI [41]: > 87.1 µM | TGI [42]: 20.6 µM | TGI [43]: > 100 µM | TGI [44]: > 100 µM | TGI [45]: > 57.7 µM | TGI [46]: 14.8 µM | TGI [47]: 22.6 µM | TGI [48]: > 100 µM | TGI [49]: 63.2 µM | TGI [50]: > 100 µM | TGI [51]: > 84.2 µM | TGI [52]: > 34.6 µM | TGI [53]: 35.5 µM | TGI [54]: > 100 µM | TGI [55]: 65.8 µM | TGI [56]: > 44 µM | TGI [57]: > 100 µM | TGI [58]: > 100 µM

CN(NC(=O)c1ccco1)C1=NCCN1
TGI [1]: > 100 µM | TGI [2]: > 100 µM | TGI [3]: > 100 µM | TGI [4]: > 100 µM | TGI [5]: > 100 µM | TGI [6]: > 100 µM | TGI [7]: > 100 µM | TGI [8]: > 100 µM | TGI [9]: > 100 µM | TGI [10]: > 100 µM | TGI [11]: > 100 µM | TGI [12]: > 100 µM | TGI [13]: > 100 µM | TGI [14]: > 100 µM | TGI [15]: > 100 µM | TGI [16]: > 100 µM | TGI [17]: > 100 µM | TGI [18]: > 100 µM | TGI [19]: > 100 µM | TGI [20]: > 100 µM | TGI [59]: > 100 µM | TGI [21]: > 100 µM | TGI [23]: > 100 µM | TGI [24]: > 100 µM | TGI [25]: > 100 µM | TGI [26]: > 100 µM | TGI [27]: > 100 µM | TGI [28]: > 100 µM | TGI [29]: > 100 µM | TGI [30]: > 100 µM | TGI [31]: > 100 µM | TGI [32]: > 100 µM | TGI [33]: > 100 µM | TGI [34]: > 100 µM | TGI [35]: > 100 µM | TGI [36]: > 100 µM | TGI [37]: > 100 µM | TGI [38]: > 100 µM | TGI [39]: > 100 µM | TGI [40]: > 100 µM | TGI [41]: > 100 µM | TGI [42]: > 100 µM | TGI [43]: > 100 µM | TGI [44]: > 100 µM | TGI [45]: > 100 µM | TGI [46]: > 100 µM | TGI [47]: > 100 µM | TGI [48]: > 100 µM | TGI [49]: > 100 µM | TGI [50]: > 100 µM | TGI [51]: > 100 µM | TGI [52]: > 100 µM | TGI [53]: > 100 µM | TGI [54]: > 100 µM | TGI [55]: > 100 µM | TGI [56]: > 100 µM | TGI [57]: > 100 µM | TGI [58]: > 100 µM
